From publication PMC7044277 (Nature Communications, 2020)
Several values for one entry are separate records, joined by “and”; a condition that tells them apart may be missing. Equal values may be shown once.

Experiments:
[1] = molecular target: T1, DRD4 (D4.4 variant) wild-type (Homo sapiens, UniProt P21917); assay: Radioligand competition binding, [3H]-N-methylspiperone; settings: DRD4; [3H]-methylspiperone (0.8-1.0 nM); read-out: Ki
T1 sequence (P21917 1-419): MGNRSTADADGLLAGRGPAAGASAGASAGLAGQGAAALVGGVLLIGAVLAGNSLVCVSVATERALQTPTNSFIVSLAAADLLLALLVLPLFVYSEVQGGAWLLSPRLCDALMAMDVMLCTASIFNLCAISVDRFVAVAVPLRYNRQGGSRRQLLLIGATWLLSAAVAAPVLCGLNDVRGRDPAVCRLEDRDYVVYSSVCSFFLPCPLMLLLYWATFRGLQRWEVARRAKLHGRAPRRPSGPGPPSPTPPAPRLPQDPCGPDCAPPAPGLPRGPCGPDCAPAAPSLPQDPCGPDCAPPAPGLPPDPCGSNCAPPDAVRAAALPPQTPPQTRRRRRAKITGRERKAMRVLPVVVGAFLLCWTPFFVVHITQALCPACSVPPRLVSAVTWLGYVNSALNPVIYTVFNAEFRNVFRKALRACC

DRD2 (D2 long receptor) [2] = molecular target: T2, DRD2 (D2 long receptor) (Homo sapiens, UniProt P14416); assay: Gαi/o-mediated cAMP inhibition (GloSensor split-luciferase cAMP reporter), HEK293T; type: cell-based; settings: for response, Fig_S11d dose-response source data: replicate values;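 for all read-outs here: compounds applied 15 min at room temperature, then luciferin plus 400 nM isoproterenol to raise cAMP through endogenous β2-adrenergic receptors, luminescence read 15 min later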
T2 sequence (P14416 whole entry): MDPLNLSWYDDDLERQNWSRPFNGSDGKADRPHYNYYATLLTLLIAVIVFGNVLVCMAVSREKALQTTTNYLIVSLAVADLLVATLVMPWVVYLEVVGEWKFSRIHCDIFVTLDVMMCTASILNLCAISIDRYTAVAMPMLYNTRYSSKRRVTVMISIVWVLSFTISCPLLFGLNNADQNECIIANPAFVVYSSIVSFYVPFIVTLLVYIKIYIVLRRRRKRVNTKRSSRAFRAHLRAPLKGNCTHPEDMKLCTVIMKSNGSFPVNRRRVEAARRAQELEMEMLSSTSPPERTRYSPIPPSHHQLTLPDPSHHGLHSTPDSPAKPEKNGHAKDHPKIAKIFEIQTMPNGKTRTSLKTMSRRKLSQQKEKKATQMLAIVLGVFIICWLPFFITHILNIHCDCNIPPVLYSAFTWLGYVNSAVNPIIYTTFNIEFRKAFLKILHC

DRD2 F1103.28L [3] = molecular target: T3, DRD2 F1103.28L (Homo sapiens, UniProt P14416, F110L); assay: β-arrestin2 recruitment (Tango), mutant; type: cell-based
T3 construct: expressed in transfected cells; host or cells: HEK293T (ATCC CRL-11268)
T3 sequence (P14416 whole entry F110L): as the sequence (P14416 whole entry) above, with F110L counted along it

DRD2 F1103.28A [4] = molecular target: T4, DRD2 F1103.28A (Homo sapiens, UniProt P14416, F110A); type: binding; parameters: expressed in transfected cells; host or cells: HEK293T (ATCC CRL-11268)
T4 sequence (P14416 whole entry F110A): as the sequence (P14416 whole entry) above, with F110A counted along it

DRD3 wild-type = DRD3 wild-type (Homo sapiens, UniProt P35462); assay: Radioligand competition binding, [3H]-N-methylspiperone; settings: DRD3 wild-type; read-out: pKi ± SEM (converted)
Sequence of DRD3 wild-type (P35462 whole entry): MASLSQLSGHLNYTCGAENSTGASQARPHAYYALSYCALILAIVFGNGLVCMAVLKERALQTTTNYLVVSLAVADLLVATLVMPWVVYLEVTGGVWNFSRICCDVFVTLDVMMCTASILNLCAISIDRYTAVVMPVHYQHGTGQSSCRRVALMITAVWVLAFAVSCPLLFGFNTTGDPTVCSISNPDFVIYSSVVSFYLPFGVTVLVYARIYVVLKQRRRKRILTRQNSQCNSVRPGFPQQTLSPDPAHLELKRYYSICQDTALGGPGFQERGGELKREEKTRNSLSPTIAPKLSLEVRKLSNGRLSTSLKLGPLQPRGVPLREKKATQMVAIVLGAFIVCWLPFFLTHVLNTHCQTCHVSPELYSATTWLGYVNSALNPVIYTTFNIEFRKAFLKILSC

DRD3 F1063.28A [5] = molecular target: T5, DRD3 F1063.28A (Homo sapiens, UniProt P35462, F106A); assay: biochemical; type: binding
T5 sequence (P35462 whole entry F106A): as the sequence (P35462 whole entry) above, with F106A counted along it

[6] = molecular target: DRD2 (D2 long receptor) wild-type (Homo sapiens, UniProt P14416); assay: Radioligand competition binding, [3H]-N-methylspiperone, HEK293T membranes; settings: DRD2; [3H]-methylspiperone (0.8-1.0 nM); read-out: Ki
Sequence of DRD2 (D2 long receptor) wild-type (P14416 whole entry): as the sequence (P14416 whole entry) above

DRD4 (D4.4 variant) [7] = molecular target: T6, DRD4 (D4.4 variant) (Homo sapiens, UniProt P21917); assay: Gαi/o-mediated cAMP inhibition (GloSensor); type: cell-based; settings: DRD4; agonist, cAMP inhibition; read-out: EC50 ± SEM
T6 sequence (P21917 1-419): T1 sequence (P21917 1-419)

DRD4 (D4.4 variant) [8] = molecular target: T6, DRD4 (D4.4 variant); assay: β-arrestin2 recruitment (Tango); type: cell-based; settings: DRD4, Tango
DRD3 F1063.28A [9] = molecular target: T5, DRD3 F1063.28A; assay: cell-based; type: cell-based
DRD2 F1103.28A [10] = molecular target: T4, DRD2 F1103.28A; assay: Gαi/o-mediated cAMP inhibition (GloSensor), mutant; type: cell-based; parameters: expressed in transfected cells; host or cells: HEK293T (ATCC CRL-11268)
DRD2 F1103.28L [11] = molecular target: T3, DRD2 F1103.28L; assay: Gαi/o-mediated cAMP inhibition (GloSensor), mutant; type: cell-based
DRD3 = DRD3 (Homo sapiens, UniProt P35462); assay: β-arrestin2 recruitment (Tango); type: cell-based; settings: DRD3, Tango
Sequence of DRD3 (P35462 whole entry): as the sequence (P35462 whole entry) above

DRD2 F1103.28A [12] = molecular target: T4, DRD2 F1103.28A; assay: β-arrestin2 recruitment (Tango), mutant; type: cell-based; parameters: expressed in transfected cells; host or cells: HEK293T (ATCC CRL-11268)
DRD2 (D2 long receptor) [13] = molecular target: T2, DRD2 (D2 long receptor); assay: β-arrestin2 recruitment (Tango), HTLA cells; type: cell-based; settings: for response, Fig_S11e dose-response source data: replicate values
[14] = read-out: Emax relative to quinpirole response

How did the Ki [1] turn out when `CCOc1cccc2cc(C(C)NCC3(O)CCCCCCC3)oc12` (centres unmarked) [O4LE8] was run?
Its Ki is 3470 nM.

What about the EC50 (DRD2 (D2 long receptor) [2]; DRD2, agonist, Gαi/o-mediated cAMP inhibition, read-out: EC50 ± SEM) of the same compound?
Its EC50 is 25.1 ± 4.15 nM.

What about the “response, Fig_S11d dose-response source data” value (DRD2 (D2 long receptor) [2]; Log[Drug] -6.52) of the same compound?
The value was 81.714.

And the “response, Fig_S11d dose-response source data” value (DRD2 (D2 long receptor) [2]; Log[Drug] -7)?
The value was 60.3486 and 66.6804 and 72.7008 and 60.4684 and 68.6286 and 77.0139 and 66.1563 and 80.9789 and 74.7009.

What about the “response, Fig_S11d dose-response source data” value (DRD2 (D2 long receptor) [2]; Log[Drug] -7.52) of the same compound?
The value was 64.1546 and 42.5815 and 54.9164 and 48.6839 and 50.89 and 54.6944 and 53.231 and 58.2356 and 61.6484.

And the “response, Fig_S11d dose-response source data” value (DRD2 (D2 long receptor) [2]; Log[Drug] -8)?
Its value is 30.3505 and 38.7582 and 38.4468 and 27.6925 and 25.4414 and 37.7886 and 33.6203 and 36.6384 and 38.4211.

What about the “response, Fig_S11d dose-response source data” value (DRD2 (D2 long receptor) [2]; Log[Drug] -8.52) of the same compound?
Its value is 18.8806 and 26.4753 and 29.6239 and 29.8085 and 24.7211 and 36.5506 and 30.7552 and 20.988 and 25.8907.

What about the “response, Fig_S11d dose-response source data” value (DRD2 (D2 long receptor) [2]; Log[Drug] -9) of the same compound?
The value was 10.6977 and 6.477 and 22.1503 and -4.7682 and 5.553 and 28.1427 and 15.0029 and 22.6689 and 22.3633.

What about the “response, Fig_S11d dose-response source data” value (DRD2 (D2 long receptor) [2]; Log[Drug] -9.52) of the same compound?
Its value is 13.483 and 14.7978 and 22.2541 and 0.3305 and -1.0989 and 21.5583 and 10.5969 and 17.6134 and 23.573.

What about the “response, Fig_S11d dose-response source data” value (DRD2 (D2 long receptor) [2]; Log[Drug] -10) of the same compound?
The value was 5.075 and 27.3403 and 11.8049 and -5.4661 and -6.0063 and 15.8293 and -4.1493 and 12.6598 and 11.3991.

What about the “response, Fig_S11d dose-response source data” value (DRD2 (D2 long receptor) [2]; Log[Drug] -10.52) of the same compound?
The value was 26.6829 and 14.6767 and 28.6205 and 3.955 and -0.615 and 13.1617 and 5.592 and 6.484 and 18.0973.

And the “response, Fig_S11d dose-response source data” value (DRD2 (D2 long receptor) [2]; Log[Drug] -11)?
Its value is 14.0885 and 21.7351 and 14.8497 and 2.548 and 0.2179 and 18.1479 and 4.5736 and 10.5841 and 33.4421.

And the “response, Fig_S11d dose-response source data” value (DRD2 (D2 long receptor) [2]; Log[Drug] -11.52)?
The value was 14.3134 and 21.1815 and -2.3983 and 1.163 and 10.5955 and 20.3089 and -4.0602 and -1.4624 and 2.396.

And the “response, Fig_S11d dose-response source data” value (DRD2 (D2 long receptor) [2]; Log[Drug] -12)?
The value was -12.3977 and -4.8203 and -3.3671 and -5.6011 and 0.2067 and 18.6656 and 6.267 and -13.7 and 1.135.

What about the Emax (DRD2 (D2 long receptor) [2]; HEK-293T, read-out: Emax relative to quinpirole response, DRD2, cAMP inhibition) of the same compound?
Its Emax is 93.5%.

What about the EC50 (DRD2 F1103.28L [3]) of the same compound?
The EC50 was 83.2 nM.

And the Emax (DRD2 F1103.28L [3]; [14])?
The Emax was 12.9%.

And the Ki (DRD2 F1103.28A [4]; DRD2 F1103.28A, read-out: pKi ± SEM (converted))?
Its Ki is 174 nM.

And the “affinity increase (binding enhanced), mutant vs wild type” value (DRD2 F1103.28A [4]; DRD2 Phe110^3.28Ala vs wild-type DRD2)?
The value was 8.47 fold.

And the Ki (DRD3 wild-type)?
Its Ki is 126 nM.

What about the Ki (DRD3 F1063.28A [5]) of the same compound?
The Ki was 209 nM.

What about the “affinity decreased, mutant vs wild type” value (DRD3 F1063.28A [5]; DRD3 Phe106^3.28Ala vs wild-type DRD3) of the same compound?
The value was 1.62 fold.

What about the Ki [6] of the same compound?
The Ki was 1440 nM.

And the EC50 (DRD4 (D4.4 variant) [7])?
The EC50 was greater than 10000 nM.

What about the EC50 (DRD4 (D4.4 variant) [8]; read-out: EC50 ± SEM) of the same compound?
The EC50 was 7720 ± 3420 nM.

And the Emax (DRD4 (D4.4 variant) [8]; [14])?
The Emax was 22.3%.

And the EC50 (DRD3 F1063.28A [9])?
The EC50 was greater than 10000 nM.

And the EC50 (DRD2 F1103.28A [10])?
Its EC50 is greater than 10000 nM.

What about the EC50 (DRD2 F1103.28L [11]; DRD2 F1103.28L (b138 head prints DRD2 F1063.28L)) of the same compound?
The EC50 was 5.14 ± 1.34 nM.

And the Emax (DRD2 F1103.28L [11]; read-out: Emax relative to quinpirole response, DRD2 F1103.28L)?
The Emax was 79.4%.

And the EC50 (DRD3; read-out: EC50 ± SEM)?
Its EC50 is 2570 ± 331 nM.

And the Emax (DRD3; [14])?
The Emax was 12.6%.

And the EC50 (DRD2 F1103.28A [12])?
Its EC50 is greater than 10000 nM.

And the EC50 (DRD2 (D2 long receptor) [13]; DRD2, β-arrestin2 recruitment (Tango), read-out: EC50 ± SEM)?
The EC50 was 958 ± 554 nM.

And the “response, Fig_S11e dose-response source data” value (DRD2 (D2 long receptor) [13]; Log[Drug] -6.52)?
The value was 25.1709.

What about the “response, Fig_S11e dose-response source data” value (DRD2 (D2 long receptor) [13]; Log[Drug] -7) of the same compound?
The value was 14.6742 and 15.2038 and 14.2094 and 15.768 and 13.8247 and 10.963 and 9.8559 and 9.763 and 11.4407.

What about the “response, Fig_S11e dose-response source data” value (DRD2 (D2 long receptor) [13]; Log[Drug] -7.52) of the same compound?
The value was 7.064 and 7.803 and 7.822 and 6.018 and 6.959 and 8.6294 and 5.868 and 6.2292 and 7.2281.

And the “response, Fig_S11e dose-response source data” value (DRD2 (D2 long receptor) [13]; Log[Drug] -8)?
The value was 5.7468 and 5.978 and 6.62 and 5.455 and 5.722 and 6.021 and 5.454 and 5.678 and 6.204.

And the “response, Fig_S11e dose-response source data” value (DRD2 (D2 long receptor) [13]; Log[Drug] -8.52)?
Its value is 5.4648 and 5.687 and 6.826 and 4.883 and 5.2931 and 6.0726 and 5.125 and 5.623 and 6.271.

What about the “response, Fig_S11e dose-response source data” value (DRD2 (D2 long receptor) [13]; Log[Drug] -9) of the same compound?
Its value is 5.367 and 5.481 and 6.509 and 5.152 and 5.102 and 5.412 and 5.069 and 5.184 and 5.586.

What about the “response, Fig_S11e dose-response source data” value (DRD2 (D2 long receptor) [13]; Log[Drug] -9.52) of the same compound?
The value was 5.23 and 5.307 and 5.645 and 4.9908 and 4.966 and 5.083 and 5.0713 and 4.923 and 5.288.

What about the “response, Fig_S11e dose-response source data” value (DRD2 (D2 long receptor) [13]; Log[Drug] -10) of the same compound?
Its value is 5.15 and 5.211 and 5.175 and 4.9 and 4.98 and 4.8838 and 4.832 and 4.97 and 4.906.

And the “response, Fig_S11e dose-response source data” value (DRD2 (D2 long receptor) [13]; Log[Drug] -10.52)?
The value was 5.0534 and 4.953 and 5.08 and 4.774 (2×) and 4.9 and 4.962 and 4.816 and 4.832.

And the “response, Fig_S11e dose-response source data” value (DRD2 (D2 long receptor) [13]; Log[Drug] -11)?
Its value is 5.0347 and 4.933 and 5.013 and 4.706 and 4.819 and 4.763 and 4.774 (2×) and 4.732.

And the “response, Fig_S11e dose-response source data” value (DRD2 (D2 long receptor) [13]; Log[Drug] -11.52)?
The value was 4.924 and 5.294 and 5.1115 and 4.785 and 5.303 and 4.761 and 4.741 and 4.765 and 4.928.

What about the “response, Fig_S11e dose-response source data” value (DRD2 (D2 long receptor) [13]; Log[Drug] -12) of the same compound?
The value was 4.887 and 4.896 and 4.876 and 4.741 and 5.073 and 4.844 and 4.843 and 5.092 and 4.723.

And the Emax (DRD2 (D2 long receptor) [13]; HTLA, read-out: Emax relative to quinpirole response, DRD2, Tango)?
Its Emax is 54%.
